Test results taken from publication PMC3138742 (PLoS ONE, 2011).

Experiments:
[1] = test system: EGFR phosphorylation in NIH3T3-EGFR T790M/L858R cells; assay: Western blot of EGFR phosphorylation; assay type: cell-based; conditions: 6 h, immunoblotting
Experimental: Cell viability was determined using sulforhodamine B assay. IC50 values were determined based on the results of three independent experiments. […] Whole-cell lysates were assayed for total EGFR and phosphorylation of EGFR by immunoblotting. […] Cell viability was determined using sulforhodamine B assay.

Calu-3 xenograft = assay: Human tumor xenograft model, tumor growth; assay type: in vivo; conditions: nude mice, p.o. twice daily
Experimental: (§1) The mice were housed and maintained under specific-pathogen free (SPF) conditions. All animal procedures were performed according to the protocol approved by the Institutional Animal Care and Use Committee at Shanghai Institute of Materia Medica, Chinese Academy of Sciences (SIMM-AE-DJ-2010-01). Under sterile conditions, well-developed tumors were cut into 1-mm^3 fragments and transplanted s.c. into the right flank of nude mice using a trocar. When the tumor reached a volume reached 100 to 200 mm^3, the mice were randomly assigned into control and treatment groups. […] The sizes of the tumors were measured twice per week using microcalipers. The tumor volume (V) was calculated as follows: V = (length×width^2)/2. The body weights of the mice were observed simultaneously.

SK-OV-3 xenograft = assay: Human tumor xenograft model, tumor growth; assay type: in vivo; conditions: nude mice, p.o. twice daily
Experimental: as §1

ErbB2 = ErbB2 (Homo sapiens, UniProt P04626); assay: Rapid dilution irreversibility experiment; assay type: biochemical; parameters: The kinase domain of EGFR, ErbB-2, IGF1R, VEGFR2, FGFR1, PDGFRα, c-Src, c-Met, RON, c-Kit, EphA2 and EphB2 were expressed; made in house; conditions: preincubated 30 min at 100-fold IC50, diluted 100-fold, sampled 180 minutes
Sequence of ErbB2 (P04626 720-987 limits assumed): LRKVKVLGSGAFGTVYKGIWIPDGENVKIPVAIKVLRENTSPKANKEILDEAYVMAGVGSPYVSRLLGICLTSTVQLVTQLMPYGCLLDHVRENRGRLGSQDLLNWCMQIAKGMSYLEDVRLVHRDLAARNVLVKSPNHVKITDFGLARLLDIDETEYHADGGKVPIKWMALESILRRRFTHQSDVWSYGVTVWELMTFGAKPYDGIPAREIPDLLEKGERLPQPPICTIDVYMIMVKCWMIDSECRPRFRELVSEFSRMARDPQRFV
Experimental: The microplate was placed in the EZ Reader (Caliper Life Sciences, MA) and wells were repeatedly sampled for 180 minutes.
To verify this, we determined the reversibility of EGFR and ErbB2 binding using a dilution method. […] After incubating, the enzyme/inhibitor mixture is diluted 100-fold (i.e., to normal reaction conditions), reaction buffer plus ATP and substrate are added, and receptor kinase activity is measured continuously. In general, a reversible inhibitor dissociates quickly, allowing immediate recovery of enzymatic activity, whereas a slowly reversible inhibitor allows a gradual increase in activity. In contrast, an irreversible inhibitor prevents recovery of enzymatic activity.

CS(=O)(=O)CCNCc1ccc(-c2ccc3ncnc(Nc4ccc(OCc5cccc(F)c5)c(Cl)c4)c3c2)o1 [lapatinib, reference compound]
inhibition of EGFR phosphorylation [1]: much weaker inhibitory effect | tumor growth (Calu-3 xenograft): exhibited antitumor activity | tumor growth (SK-OV-3 xenograft): exhibited antitumor activity | recovery of ErbB2 enzymatic activity after dilution (ErbB2): slow recovery of the enzymatic activity
